Results: patent US11207312B2, “Metallo-beta-lactamase inhibitors and methods of use thereof” (priority 2017, dated 2021)

Columns and labels:
[1] = target: VIM-2 (Escherichia coli, UniProt Q5U7L7); assay: biochemical; settings: CCF2-FA fluorescence assay; read-out: VIM2 IC50
[2] = target: IMP-1 (Serratia marcescens, UniProt P52699); assay: biochemical; settings: CCF2-FA fluorescence assay, 2 hours at 25° C.; read-out: IMP1 IC50
In short: (§1)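 Each enzyme (final 1 pM NDM-1, 2 pM IMP-1, 30 pM VIM-1) was incubated with test inhibitor (20 μM to 0.00063 μM) and 1.25 μM CCF2-FA for 2 hours at 25° C in zinc-supplemented phosphate buffer, pH 7. Fluorescence at 460 nm was then read and IC50 fitted with four parameters.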

[3] = target: VIM-1 (Pseudomonas aeruginosa (strain ATCC 15692 / DSM 22644 / CIP 104116 / JCM 14847 / LMG 12228 / 1C / PRS 101 / PAO1), UniProt A0A0F7KYQ8); assay: biochemical; settings: CCF2-FA fluorescence assay, 2 hours at 25° C.; read-out: VIM1 IC50
In short: as §1

[4] = system: P. aeruginosa MB9799 (efflux-, IMP-1 plasmid); format: cell-based, Pseudomonas aeruginosa; settings: efflux − (MB9799) strain; imipenem at 2 μg/mL; in the presence of a class A, C, D serine β-lactamase inhibitor closely related to relebactam
In short: (§2)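 PAO1-derived isogenic pair (oprD+, inducible AmpC), efflux+ MB5919 or efflux− MB5890 parent, carrying an electroporated IMP-1 plasmid from a clinical isolate. Microbroth MIC with fixed imipenem and/or ceftazidime (usually CLSI breakpoint) plus fixed class A/C inhibitor; MBL inhibitor serially titrated, concentration restoring susceptibility recorded.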

[5] = system: Serratia marcescens expressing IMP-1 (CL5741); format: cell-based; settings: with imipenem 1 μg/ml; 95% inhibition of bacterial growth
In short: (§3)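 Each strain, diluted 1:100 from saline suspension into 1.1× CAMHB, was combined with imipenem held at 1 μg/ml and graded inhibitor. Growth after 22–24 h at 35 °C was measured by absorbance, and the lowest concentration achieving 95% inhibition defined MITC95.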

[6] = system: Klebsiella pneumoniae expressing VIM-1 (IHMA599644); format: cell-based; settings: with imipenem 1 μg/ml; 95% inhibition of bacterial growth
In short: as §3

[7] = system: Escherichia coli expressing NDM-1 (CLB30016); format: cell-based; settings: with imipenem 1 μg/ml; 95% inhibition of bacterial growth
In short: as §3

[8] = system: P. aeruginosa MB9798 (efflux+, IMP-1 plasmid); settings: for MB9798 MITC95 P. aeruginosa uM Efflux WT: efflux + (MB9798) strain, imipenem at 2 μg/mL, in the presence of a class A, C, D serine β-lactamase inhibitor closely related to relebactam; for Efflux ratio: fold difference between efflux+ (MB9798) and efflux− (MB9799) strains
In short: as §2

[9] = target: NDM-1 (Klebsiella pneumoniae, UniProt C7C422); assay: biochemical; format: biochemical; settings: CCF2-FA fluorescence assay, 2 hours at 25° C.
NDM-1, sequence (C7C422 whole entry, looked up, species assumed): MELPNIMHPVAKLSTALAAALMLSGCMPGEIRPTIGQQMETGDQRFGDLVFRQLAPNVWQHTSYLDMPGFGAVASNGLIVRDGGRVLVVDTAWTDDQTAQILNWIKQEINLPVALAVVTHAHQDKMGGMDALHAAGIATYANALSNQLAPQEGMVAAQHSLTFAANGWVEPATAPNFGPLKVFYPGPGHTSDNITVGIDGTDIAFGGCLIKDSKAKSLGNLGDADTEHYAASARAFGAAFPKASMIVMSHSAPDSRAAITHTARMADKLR
In short: as §1

IMP-1, sequence (P52699 whole entry, looked up, species assumed): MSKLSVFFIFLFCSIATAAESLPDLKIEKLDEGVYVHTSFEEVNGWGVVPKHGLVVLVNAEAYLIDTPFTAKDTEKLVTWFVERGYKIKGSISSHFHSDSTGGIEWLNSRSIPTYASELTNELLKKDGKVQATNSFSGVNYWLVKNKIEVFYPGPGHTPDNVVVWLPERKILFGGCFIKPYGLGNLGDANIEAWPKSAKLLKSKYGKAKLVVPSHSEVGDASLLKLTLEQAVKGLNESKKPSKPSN

## NCC1CCN(c2ccc(S(=O)(=O)N[C@@H]3CCNC3)c(S(N)(=O)=O)c2-c2nn[nH]n2)C(=O)C1 (stereo partly shown) [Example 149]
[1]
  IC50: 48.1 nM
[2]
  IC50: 104 nM
[3]
  IC50: 0.96 nM
[4]
  MB9799 MITC95 P. aeruginosa uM Efflux Mutant: 3.13 µM
[5]
  CL5741 S. marcescens MITC95 IMP: 1.56 µM
[6]
  IHMA599644 K. pneumoniae MITC95 VIM: 1.56 µM
[7]
  CLB30016 E. coli MITC95 NDM: 0.20 µM
[8]
  MB9798 MITC95 P. aeruginosa uM Efflux WT: 6.25 µM
  Efflux ratio: 2.00
[9]
  IC50: 4.46 nM

## NOC1CCCN(c2ccc(S(=O)(=O)N[C@@H]3CCNC3)c(S(N)(=O)=O)c2-c2nn[nH]n2)C1=O (stereo partly shown) [Example 150]
[1]
  IC50: 1.52 nM
[2]
  IC50: 17.1 nM
[3]
  IC50: 0.38 nM
[4]
  MB9799 MITC95 P. aeruginosa uM Efflux Mutant: 3.13 µM
[5]
  CL5741 S. marcescens MITC95 IMP: 6.25 µM
[6]
  IHMA599644 K. pneumoniae MITC95 VIM: 12.50 µM
[7]
  CLB30016 E. coli MITC95 NDM: 1.56 µM
[8]
  MB9798 MITC95 P. aeruginosa uM Efflux WT: 12.50 µM
  Efflux ratio: 4.00
[9]
  IC50: 0.62 nM

## NS(=O)(=O)c1c(S(=O)(=O)N[C@@H]2CCNC2)ccc(N2CCCC(=O)C2=O)c1-c1nn[nH]n1 [Example 151, (R)-4-(2,3-dioxopiperidin-1-yl)-N1-(pyrrolidin-3-yl)-3-(2H-tetrazol-5-yl) benzene-1,2-disulfonamide]
[1]
  IC50: 5.92 nM
[2]
  IC50: 6.7 nM
[3]
  IC50: 1.15 nM
[4]
  MB9799 MITC95 P. aeruginosa uM Efflux Mutant: 3.13 µM
[5]
  CL5741 S. marcescens MITC95 IMP: 1.56 µM
[6]
  IHMA599644 K. pneumoniae MITC95 VIM: 6.25 µM
[7]
  CLB30016 E. coli MITC95 NDM: 0.39 µM
[8]
  MB9798 MITC95 P. aeruginosa uM Efflux WT: 12.50 µM
  Efflux ratio: 4.00
[9]
  IC50: 0.53 nM

## NS(=O)(=O)c1c(S(=O)(=O)N[C@@H]2CCNC2)ccc(N2CCCC(=NO)C2=O)c1-c1nn[nH]n1 [Example 152, (R)-4-(3-(hydroxyimino)-2-oxopiperidin-1-yl)-N1-(pyrrolidin-3-yl)-3-(2H-tetrazol-5-yl)benzene-1,2-disulfonamide]
[1]
  IC50: 0.74 nM
[2]
  IC50: 6.8 nM
[3]
  IC50: 0.16 nM
[4]
  MB9799 MITC95 P. aeruginosa uM Efflux Mutant: 1.56 µM
[5]
  CL5741 S. marcescens MITC95 IMP: 1.56 µM
[6]
  IHMA599644 K. pneumoniae MITC95 VIM: 3.13 µM
[7]
  CLB30016 E. coli MITC95 NDM: 0.39 µM
[8]
  MB9798 MITC95 P. aeruginosa uM Efflux WT: 3.13 µM
  Efflux ratio: 2.00
[9]
  IC50: 0.08 nM

## NS(=O)(=O)c1c(S(=O)(=O)N[C@@H]2CCNC2)ccc(N2CCCNC2=O)c1-c1nn[nH]n1 [Example 153, (R)-4-(2-oxotetrahydropyrimidin-1(2H)-yl)-N1-(pyrrolidin-3-yl)-3-(2H-tetrazol-5-yl)benzene-1,2-disulfonamide]
[1]
  IC50: 1.1 nM
[2]
  IC50: 7.23 nM
[3]
  IC50: 0.2 nM
[4]
  MB9799 MITC95 P. aeruginosa uM Efflux Mutant: 1.56 µM
[5]
  CL5741 S. marcescens MITC95 IMP: 1.56 µM
[6]
  IHMA599644 K. pneumoniae MITC95 VIM: 3.13 µM
[7]
  CLB30016 E. coli MITC95 NDM: 0.78 µM
[8]
  MB9798 MITC95 P. aeruginosa uM Efflux WT: 3.13 µM
  Efflux ratio: 2.00
[9]
  IC50: 0.21 nM

## NS(=O)(=O)c1c(S(=O)(=O)N[C@@H]2CCNC2)ccc(N2CCCCC2=O)c1-c1nn[nH]n1 [Example 154, (R)-4-(2-oxopiperidin-1-yl)-N1-(pyrrolidin-3-yl)-3-(2H-tetrazol-5-yl)benzene-1,2-disulfonamide]
[1]
  IC50: 0.73 nM
[2]
  IC50: 8.46 nM
[3]
  IC50: 0.26 nM
[4]
  MB9799 MITC95 P. aeruginosa uM Efflux Mutant: 1.56 µM
[5]
  CL5741 S. marcescens MITC95 IMP: 1.56 µM
[6]
  IHMA599644 K. pneumoniae MITC95 VIM: 6.25 µM
[7]
  CLB30016 E. coli MITC95 NDM: 1.56 µM
[8]
  MB9798 MITC95 P. aeruginosa uM Efflux WT: 3.13 µM
  Efflux ratio: 2.00
[9]
  IC50: 0.35 nM

## N[C@@H]1CCCN(c2ccc(S(=O)(=O)N[C@@H]3CCNC3)c(S(N)(=O)=O)c2-c2nn[nH]n2)C1=O [Example 155]
[1]
  IC50: 6.87 nM
[2]
  IC50: 81.4 nM
[3]
  IC50: 2.14 nM
[4]
  MB9799 MITC95 P. aeruginosa uM Efflux Mutant: 3.13 µM
[5]
  CL5741 S. marcescens MITC95 IMP: 3.13 µM
[6]
  IHMA599644 K. pneumoniae MITC95 VIM: 1.56 µM
[7]
  CLB30016 E. coli MITC95 NDM: 0.39 µM
[8]
  MB9798 MITC95 P. aeruginosa uM Efflux WT: 6.25 µM
  Efflux ratio: 2.00
[9]
  IC50: 5.12 nM

## N[C@H]1CCCN(c2ccc(S(=O)(=O)N[C@@H]3CCNC3)c(S(N)(=O)=O)c2-c2nn[nH]n2)C1=O [Example 156, 4-((S)-3-amino-2-oxopiperidin-1-yl)-N1-((R)-pyrrolidin-3-yl)-3-(2H-tetrazol-5-yl)benzene-1,2-disulfonamide]
[1]
  IC50: 7.16 nM
[2]
  IC50: 67.7 nM
[3]
  IC50: 2.14 nM
[4]
  MB9799 MITC95 P. aeruginosa uM Efflux Mutant: 1.56 µM
[5]
  CL5741 S. marcescens MITC95 IMP: 1.56 µM
[6]
  IHMA599644 K. pneumoniae MITC95 VIM: 1.56 µM
[7]
  CLB30016 E. coli MITC95 NDM: 0.39 µM
[8]
  MB9798 MITC95 P. aeruginosa uM Efflux WT: 12.50 µM
  Efflux ratio: 8.00
[9]
  IC50: 4.64 nM

## NS(=O)(=O)c1c(S(=O)(=O)N[C@@H]2CCNC2)ccc(N2CCC(CO)CC2=O)c1-c1nn[nH]n1 (stereo partly drawn) [Example 157, 4-(4-(hydroxymethyl)-2-oxopiperidin-1-yl)-N1-((R)-pyrrolidin-3-yl)-3-(2H-tetrazol-5-yl)benzene-1,2-disulfonamide]
[1]
  IC50: 1.85 nM
[2]
  IC50: 6.9 nM
[3]
  IC50: 0.25 nM
[4]
  MB9799 MITC95 P. aeruginosa uM Efflux Mutant: 3.13 µM
[5]
  CL5741 S. marcescens MITC95 IMP: 3.13 µM
[6]
  IHMA599644 K. pneumoniae MITC95 VIM: 6.25 µM
[7]
  CLB30016 E. coli MITC95 NDM: 1.56 µM
[8]
  MB9798 MITC95 P. aeruginosa uM Efflux WT: 3.13 µM
  Efflux ratio: 1.00
[9]
  IC50: 0.24 nM

## NC1CCN(c2ccc(S(=O)(=O)N[C@@H]3CCNC3)c(S(N)(=O)=O)c2-c2nn[nH]n2)C(=O)C1 (stereo partly drawn) [Example 158, 4-(4-amino-2-oxopiperidin-1-yl)-N1-((R)-pyrrolidin-3-yl)-3-(2H-tetrazol-5-yl)benzene-1,2-disulfonamide]
[1]
  IC50: 22.8 nM
[2]
  IC50: 88.4 nM
[3]
  IC50: 1.22 nM
[4]
  MB9799 MITC95 P. aeruginosa uM Efflux Mutant: 3.13 µM
[5]
  CL5741 S. marcescens MITC95 IMP: 1.56 µM
[6]
  IHMA599644 K. pneumoniae MITC95 VIM: 0.78 µM
[7]
  CLB30016 E. coli MITC95 NDM: 0.10 µM
[8]
  MB9798 MITC95 P. aeruginosa uM Efflux WT: 6.25 µM
  Efflux ratio: 2.00
[9]
  IC50: 7.19 nM

## NS(=O)(=O)c1c(S(=O)(=O)N[C@@H]2CCNC2)ccc(N2CCC(O)CC2=O)c1-c1nn[nH]n1 (stereo partly drawn) [Example 159, 4-(4-hydroxy-2-oxopiperidin-1-yl)-N1-((R)-pyrrolidin-3-yl)-3-(2H-tetrazol-5-yl)benzene-1,2-disulfonamide]
[1]
  IC50: 2.62 nM
[2]
  IC50: 15.9 nM
[3]
  IC50: 0.38 nM
[4]
  MB9799 MITC95 P. aeruginosa uM Efflux Mutant: 1.56 µM
[5]
  CL5741 S. marcescens MITC95 IMP: 0.78 µM
[6]
  IHMA599644 K. pneumoniae MITC95 VIM: 6.25 µM
[7]
  CLB30016 E. coli MITC95 NDM: 1.56 µM
[8]
  MB9798 MITC95 P. aeruginosa uM Efflux WT: 6.25 µM
  Efflux ratio: 4.00
[9]
  IC50: 0.61 nM

## NC[C@@H](O)CNS(=O)(=O)c1ccc(N2CCN(C(CO)CO)CC2)c(-c2nn[nH]n2)c1S(N)(=O)=O [Example 160, (R)-N1-(3-amino-2-hydroxypropyl)-4-(4-(1,3-dihydroxypropan-2-yl)piperazin-1-yl)-3-(2H-tetrazol-5-yl)benzene-1,2-disulfonamide]
[1]
  IC50: 5.49 nM
[2]
  IC50: 1.2 nM
[3]
  IC50: 1.34 nM
[4]
  MB9799 MITC95 P. aeruginosa uM Efflux Mutant: 1.56 µM
[5]
  CL5741 S. marcescens MITC95 IMP: 0.20 µM
[6]
  IHMA599644 K. pneumoniae MITC95 VIM: 1.56 µM
[7]
  CLB30016 E. coli MITC95 NDM: 0.78 µM
[8]
  MB9798 MITC95 P. aeruginosa uM Efflux WT: 1.56 µM
  Efflux ratio: 1.00
[9]
  IC50: 1.16 nM

## NC[C@@H](O)CNS(=O)(=O)c1ccc(N2C[C@H]3CNC[C@H]3C2)c(-c2nn[nH]n2)c1S(N)(=O)=O [Example 161, N1-((R)-3-amino-2-hydroxypropyl)-4-((3aR,6aS)-hexahydropyrrolo[3,4-c]pyrrol-2(1H)-yl)-3-(2H-tetrazol-5-yl)benzene-1,2-disulfonamide]
[1]
  IC50: 14.9 nM
[2]
  IC50: 45.4 nM
[3]
  IC50: 0.89 nM
[4]
  MB9799 MITC95 P. aeruginosa uM Efflux Mutant: 6.25 µM
[5]
  CL5741 S. marcescens MITC95 IMP: 3.13 µM
[6]
  IHMA599644 K. pneumoniae MITC95 VIM: 1.56 µM
[7]
  CLB30016 E. coli MITC95 NDM: 1.56 µM
[8]
  MB9798 MITC95 P. aeruginosa uM Efflux WT: 12.50 µM
  Efflux ratio: 2.00
[9]
  IC50: 12.2 nM
